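Following 48 hours of exposure in 96-well plates, responses at five concentrations were used to interpolate endpoints linearly. TGI is the concentration that stops growth completely.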
system: SR leukemia; assay: inhibition of tumour cell growth, NCI panel, 48 h

Q: Which TGI does the source give for `O=c1c2cccnc2ncn1CCN1CCCCC1` here?
A: > 100 µM

Q: For `O=C(Nc1c(O)[nH]c(=S)[nH]c1=O)c1ccccc1`, which TGI is on record?
A: > 100 µM

Q: With `COc1ccc(C2c3cc4c(cc3OC3(OC)COC(=O)C23)OCO4)c(OC)c1` (stereo not drawn) as the compound, how does the TGI read?
A: > 100 µM

Q: Which TGI does the source give for `CC1=C/C(=N\NC(N)=S)C(C(O)(C(F)(F)F)C(F)(F)F)C(C)(C)C1` (stereo not drawn) here?
A: > 10 µM

system: SW-620 colon; assay: inhibition of tumour cell growth, NCI panel, 48 h

Q: `O=S1C(=c2ccc(=C3Sc4ccccc4S3)cc2)Sc2ccccc21` (stereo not drawn) was tested. Which TGI did it give?
A: > 100 µM

Q: For `N#CC(C(=O)CCC(=O)Nc1ccc(Cl)c(Cl)c1)c1ccccc1` (stereo not drawn), which TGI is on record?
A: > 100 µM

Q: Which TGI does the source give for `O=c1c2cccnc2ncn1CCN1CCCCC1` here?
A: > 100 µM

Q: How did the TGI turn out when `O=C(Nc1c(O)[nH]c(=S)[nH]c1=O)c1ccccc1` was run?
A: > 100 µM

Q: For `COc1ccc(C2c3cc4c(cc3OC3(OC)COC(=O)C23)OCO4)c(OC)c1` (stereo not drawn), which TGI is on record?
A: > 100 µM

Q: Which TGI does the source give for `COc1cc2c(cc1O)[C@H](C)C(c1ccc(OC)c(OC)c1)O2` (stereo partly drawn) here?
A: 19.4 µM

Q: How did the TGI turn out when `CC1=C/C(=N\NC(N)=S)C(C(O)(C(F)(F)F)C(F)(F)F)C(C)(C)C1` (stereo not drawn) was run?
A: > 10 µM

system: T-47D breast; assay: inhibition of tumour cell growth, NCI panel, 48 h

Q: `COc1ccc(C2c3cc4c(cc3OC3(OC)COC(=O)C23)OCO4)c(OC)c1` (stereo not drawn) was tested. Which TGI did it give?
A: > 100 µM

Q: `CC1=C/C(=N\NC(N)=S)C(C(O)(C(F)(F)F)C(F)(F)F)C(C)(C)C1` (stereo not drawn) was tested. Which TGI did it give?
A: > 10 µM

system: TK-10 renal; assay: inhibition of tumour cell growth, NCI panel, 48 h

Q: Which TGI does the source give for `O=S1C(=c2ccc(=C3Sc4ccccc4S3)cc2)Sc2ccccc21` (stereo not drawn) here?
A: > 100 µM

Q: For `O=c1c2cccnc2ncn1CCN1CCCCC1`, which TGI is on record?
A: > 100 µM

Q: Which TGI does the source give for `O=C(Nc1c(O)[nH]c(=S)[nH]c1=O)c1ccccc1` here?
A: > 100 µM

Q: Which TGI does the source give for `COc1ccc(C2c3cc4c(cc3OC3(OC)COC(=O)C23)OCO4)c(OC)c1` (stereo not drawn) here?
A: > 95.6 µM

Q: With `COc1cc2c(cc1O)[C@H](C)C(c1ccc(OC)c(OC)c1)O2` (stereo partly drawn) as the compound, how does the TGI read?
A: 30.1 µM

Q: `CC1=C/C(=N\NC(N)=S)C(C(O)(C(F)(F)F)C(F)(F)F)C(C)(C)C1` (stereo not drawn) was tested. Which TGI did it give?
A: > 10 µM

system: U251 CNS; assay: inhibition of tumour cell growth, NCI panel, 48 h

Q: With `O=S1C(=c2ccc(=C3Sc4ccccc4S3)cc2)Sc2ccccc21` (stereo not drawn) as the compound, how does the TGI read?
A: 28.2 µM

Q: For `N#CC(C(=O)CCC(=O)Nc1ccc(Cl)c(Cl)c1)c1ccccc1` (stereo not drawn), which TGI is on record?
A: > 100 µM

Q: Which TGI does the source give for `O=c1c2cccnc2ncn1CCN1CCCCC1` here?
A: > 100 µM

Q: For `O=C(Nc1c(O)[nH]c(=S)[nH]c1=O)c1ccccc1`, which TGI is on record?
A: > 100 µM

Q: With `COc1ccc(C2c3cc4c(cc3OC3(OC)COC(=O)C23)OCO4)c(OC)c1` (stereo not drawn) as the compound, how does the TGI read?
A: > 100 µM

Q: For `COc1cc2c(cc1O)[C@H](C)C(c1ccc(OC)c(OC)c1)O2` (stereo partly drawn), which TGI is on record?
A: 37.8 µM

Q: With `CC1=C/C(=N\NC(N)=S)C(C(O)(C(F)(F)F)C(F)(F)F)C(C)(C)C1` (stereo not drawn) as the compound, how does the TGI read?
A: > 10 µM

system: UACC-257 melanoma; assay: inhibition of tumour cell growth, NCI panel, 48 h

Q: How did the TGI turn out when `O=S1C(=c2ccc(=C3Sc4ccccc4S3)cc2)Sc2ccccc21` (stereo not drawn) was run?
A: > 100 µM

Q: For `N#CC(C(=O)CCC(=O)Nc1ccc(Cl)c(Cl)c1)c1ccccc1` (stereo not drawn), which TGI is on record?
A: > 100 µM

Q: With `O=C(Nc1c(O)[nH]c(=S)[nH]c1=O)c1ccccc1` as the compound, how does the TGI read?
A: > 100 µM

Q: `COc1ccc(C2c3cc4c(cc3OC3(OC)COC(=O)C23)OCO4)c(OC)c1` (stereo not drawn) was tested. Which TGI did it give?
A: > 100 µM

Q: `COc1cc2c(cc1O)[C@H](C)C(c1ccc(OC)c(OC)c1)O2` (stereo partly drawn) was tested. Which TGI did it give?
A: 35.9 µM

Q: `CC1=C/C(=N\NC(N)=S)C(C(O)(C(F)(F)F)C(F)(F)F)C(C)(C)C1` (stereo not drawn) was tested. Which TGI did it give?
A: > 10 µM

system: UACC-62 melanoma; assay: inhibition of tumour cell growth, NCI panel, 48 h

Q: For `O=S1C(=c2ccc(=C3Sc4ccccc4S3)cc2)Sc2ccccc21` (stereo not drawn), which TGI is on record?
A: 35.2 µM

Q: For `N#CC(C(=O)CCC(=O)Nc1ccc(Cl)c(Cl)c1)c1ccccc1` (stereo not drawn), which TGI is on record?
A: > 100 µM

Q: For `O=c1c2cccnc2ncn1CCN1CCCCC1`, which TGI is on record?
A: > 100 µM

Q: For `O=C(Nc1c(O)[nH]c(=S)[nH]c1=O)c1ccccc1`, which TGI is on record?
A: > 100 µM

Q: Which TGI does the source give for `COc1ccc(C2c3cc4c(cc3OC3(OC)COC(=O)C23)OCO4)c(OC)c1` (stereo not drawn) here?
A: > 85.9 µM

Q: `COc1cc2c(cc1O)[C@H](C)C(c1ccc(OC)c(OC)c1)O2` (stereo partly drawn) was tested. Which TGI did it give?
A: 10.1 µM

Q: Which TGI does the source give for `CC1=C/C(=N\NC(N)=S)C(C(O)(C(F)(F)F)C(F)(F)F)C(C)(C)C1` (stereo not drawn) here?
A: > 10 µM

system: UO-31 renal; assay: inhibition of tumour cell growth, NCI panel, 48 h

Q: With `O=S1C(=c2ccc(=C3Sc4ccccc4S3)cc2)Sc2ccccc21` (stereo not drawn) as the compound, how does the TGI read?
A: 35.2 µM

Q: Which TGI does the source give for `N#CC(C(=O)CCC(=O)Nc1ccc(Cl)c(Cl)c1)c1ccccc1` (stereo not drawn) here?
A: > 100 µM

Q: Which TGI does the source give for `O=c1c2cccnc2ncn1CCN1CCCCC1` here?
A: > 100 µM

Q: For `O=C(Nc1c(O)[nH]c(=S)[nH]c1=O)c1ccccc1`, which TGI is on record?
A: > 100 µM

Q: With `COc1ccc(C2c3cc4c(cc3OC3(OC)COC(=O)C23)OCO4)c(OC)c1` (stereo not drawn) as the compound, how does the TGI read?
A: > 100 µM

Q: `COc1cc2c(cc1O)[C@H](C)C(c1ccc(OC)c(OC)c1)O2` (stereo partly drawn) was tested. Which TGI did it give?
A: 64 µM

system: XF 498 CNS; assay: inhibition of tumour cell growth, NCI panel, 48 h

Q: Which TGI does the source give for `N#CC(C(=O)CCC(=O)Nc1ccc(Cl)c(Cl)c1)c1ccccc1` (stereo not drawn) here?
A: > 100 µM

Q: Which TGI does the source give for `O=c1c2cccnc2ncn1CCN1CCCCC1` here?
A: > 100 µM

Q: For `COc1cc2c(cc1O)[C@H](C)C(c1ccc(OC)c(OC)c1)O2` (stereo partly drawn), which TGI is on record?
A: 21.8 µM

— PubChem BioAssay (NCI)
